The text below walks through data of patent publication US20250382361A1, “AFFIBODIES, HYDROGELS CONTAINING AFFIBODIES, AND USES THEREOF” (University of Oregon, priority 2024, published 2025).

What is called Kd is the constant that tells how readily two partners part at equilibrium. A word on the EC50 (read off the curve): it is the concentration needed to bring the measured effect to its halfway point.

In test [1] the test system is HUVECs. Put plainly: Endothelial tube formation assay. It counts as cell-based, human. Here is the method: Human umbilical vein endothelial cells (HUVECs) were seeded in tissue culture flasks at 2,500 cells/cm^2 and cultured in complete Endothelial Growth Medium (Lonza, Walkersville, MD) at 37° C. and 5% CO2. Upon reaching 60-80% confluence, cells were washed with PBS, trypsinized, and seeded at 5,000 or 15,000 cells/well onto 96-well plates pre-coated with 100 μL of Cultrex Reduced Growth Factor Basement Membrane Extract (RGF BME, R&D Systems). HUVECs were allowed to adhere to the coated surface for 2 hours. […] Cells were cultured for 48 hours on a BioTek Lionheart FX automated microscope (Agilent Technologies, Santa Clara, CA) at 37° C. and 5% CO2 with 4× phase contrast time lapse images taken at 4, 8, 12, 16, 20, 24, and 48 hours. Total network length and branching of HUVEC networks were measured from images using the Angiogenesis Analyzer plugin for ImageJ.
Responses of HUVECs to each of the three growth factors of interest were first studied.

Test [2] relates to HUVECs. Put plainly: VEGF bioactivity HUVEC proliferation assay (CellTiter-Glo). It counts as cell-based, human. The conditions noted are these: VEGF for 96 hours.
Test [3] has as its target T1, VEGF165 (Homo sapiens, UniProt P15692).
T1 construct: biotin (label as supplied by the vendor); purchased Acro Biosystems
T1 sequence (P15692 1-191 isoform P15692-4): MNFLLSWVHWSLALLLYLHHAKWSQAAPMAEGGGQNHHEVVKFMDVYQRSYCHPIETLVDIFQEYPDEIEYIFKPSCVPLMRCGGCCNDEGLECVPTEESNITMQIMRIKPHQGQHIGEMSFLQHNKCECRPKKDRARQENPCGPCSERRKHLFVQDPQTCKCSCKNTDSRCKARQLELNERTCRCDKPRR
The conditions noted are these: cited from earlier work.

Test [4] addresses integrin α5β1 (Homo sapiens, UniProt P05556+P08648). The note with it: cited from earlier work.
For test [5], the target named is antithrombin-III (Homo sapiens, UniProt P01008). The conditions noted are these: cited from earlier work.
antithrombin-III, sequence (P01008 33-464, species assumed): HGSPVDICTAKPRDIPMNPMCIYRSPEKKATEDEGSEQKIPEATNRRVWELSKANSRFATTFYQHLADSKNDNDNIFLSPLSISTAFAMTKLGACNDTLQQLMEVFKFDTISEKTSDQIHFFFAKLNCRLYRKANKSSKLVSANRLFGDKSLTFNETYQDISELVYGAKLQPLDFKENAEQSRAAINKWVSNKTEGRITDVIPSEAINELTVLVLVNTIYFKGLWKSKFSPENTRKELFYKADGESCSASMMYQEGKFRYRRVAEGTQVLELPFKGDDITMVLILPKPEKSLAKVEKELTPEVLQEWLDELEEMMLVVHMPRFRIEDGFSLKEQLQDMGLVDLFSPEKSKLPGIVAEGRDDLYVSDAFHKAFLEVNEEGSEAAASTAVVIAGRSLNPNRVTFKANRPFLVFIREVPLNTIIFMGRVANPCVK
For test [6], the target named is fibroblast growth factor-1 (Homo sapiens, UniProt P05230). The note with it: cited from earlier work.
fibroblast growth factor-1, sequence (P05230 whole entry, species assumed): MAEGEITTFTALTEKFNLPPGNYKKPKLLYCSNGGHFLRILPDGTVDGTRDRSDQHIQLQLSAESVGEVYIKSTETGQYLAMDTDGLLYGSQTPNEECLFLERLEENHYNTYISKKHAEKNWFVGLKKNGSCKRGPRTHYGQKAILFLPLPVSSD
Test [7] addresses T2, Recombinant human BMP-2 (bone morphogenetic protein 2) (human, UniProt P12643 283-396, biotinylated with Sulfo-NHS-Biotin (bBMP-2) in flow cytometry and BLI).
T2 construct: Bought protein; also called bBMP-2; bBMP
Put plainly: flow cytometry, yeast-displayed affibody titrated with bBMP-2 0.5-1000 nM. The source says: Yeast clones with names starting with the letter A were identified using the gating approach in FIG. 2A, and yeast clones with names starting with B were identified using the gate approach in FIG. 2B. The affibodies chosen for further characterization are boxed in the legend.
A general note: In flow cytometry, cells or beads pass a laser one at a time.

The target in test [8] is PDGF receptor beta (PDGFRβ) on NIH/3T3-Luc cells (UniProt P05622 32-1098, limits assumed). As to the kind of experiment: cell-based or functional assay.
PDGF receptor beta (PDGFRβ) on NIH/3T3-Luc cells, sequence (P05622 32-1098 limits assumed): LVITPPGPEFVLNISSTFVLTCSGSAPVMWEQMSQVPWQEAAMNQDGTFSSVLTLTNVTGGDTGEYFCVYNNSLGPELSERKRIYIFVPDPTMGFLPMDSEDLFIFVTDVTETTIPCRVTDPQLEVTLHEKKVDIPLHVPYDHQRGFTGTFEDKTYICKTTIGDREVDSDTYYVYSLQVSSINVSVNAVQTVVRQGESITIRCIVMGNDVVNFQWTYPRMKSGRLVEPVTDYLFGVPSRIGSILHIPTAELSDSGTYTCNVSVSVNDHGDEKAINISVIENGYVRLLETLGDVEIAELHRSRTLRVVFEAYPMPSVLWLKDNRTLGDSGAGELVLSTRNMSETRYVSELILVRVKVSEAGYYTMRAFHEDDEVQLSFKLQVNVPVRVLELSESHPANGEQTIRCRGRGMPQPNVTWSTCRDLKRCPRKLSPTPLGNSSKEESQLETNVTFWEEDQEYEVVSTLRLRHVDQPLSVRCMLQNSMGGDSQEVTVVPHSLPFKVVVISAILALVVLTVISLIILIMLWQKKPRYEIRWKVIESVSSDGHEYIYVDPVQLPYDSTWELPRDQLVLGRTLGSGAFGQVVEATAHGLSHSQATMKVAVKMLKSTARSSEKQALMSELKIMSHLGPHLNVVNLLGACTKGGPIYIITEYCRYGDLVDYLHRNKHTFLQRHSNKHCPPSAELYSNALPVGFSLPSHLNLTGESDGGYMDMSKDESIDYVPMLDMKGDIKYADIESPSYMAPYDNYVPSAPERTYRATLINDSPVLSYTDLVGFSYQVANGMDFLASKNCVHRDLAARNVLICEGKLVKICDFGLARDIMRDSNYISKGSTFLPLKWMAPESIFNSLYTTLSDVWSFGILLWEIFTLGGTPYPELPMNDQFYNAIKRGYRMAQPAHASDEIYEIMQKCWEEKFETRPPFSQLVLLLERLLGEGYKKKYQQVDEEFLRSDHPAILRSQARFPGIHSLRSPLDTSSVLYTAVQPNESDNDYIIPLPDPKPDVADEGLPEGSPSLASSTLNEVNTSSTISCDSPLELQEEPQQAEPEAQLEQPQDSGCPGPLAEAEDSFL
The subject of test [9] is NIH/3T3-Luc cells. Put plainly: PDGF bioactivity luciferase reporter assay. The conditions noted are these: PDGF for 5 hours. It counts as cell-based. Here is the method: NIH/3T3 fibroblast cells (ATCC) were thawed, seeded at 10,000 cell/cm^2, and expanded in growth medium consisting of DMEM containing 10% (v/v) fetal bovine serum (R&D Systems, Minneapolis, MN). Cultures were routinely maintained at 37° C. and 5% CO2 and passaged at 60-70% confluence. After three passages of expansion, NIH/3T3 cells were grown in Eagle's Minimal Essential Medium (EMEM, ATCC) for a single passage prior to transfection. Transfection mixtures were prepared according to the manufacturer's protocols. Briefly, 2500 ng of luciferase reporter plasmid pGL4.33 [luc2P/SRE/Hygro] […]
NIH/3T3-Luc cells were seeded at 31,250 cells/cm^2 and incubated in 100 μL of growth medium overnight in 96 well plates. […] Luminescence was then measured using SpectraMax 13 plate reader (Molecular Devices, San Jose, CA).
PDGF bioactivity was assessed using NIH/3T3 cells transfected with a firefly luciferase gene reporter plasmid that links multiple ERK1/2 signaling pathways, including PDGFRβ signaling, to luciferase expression through a serum response element under the regulation of ERK1/2 (FIG. 30A). […] Firefly luciferase expression was assessed via the conversion of 5′-fluoroluciferin to oxyfluoroluciferin, which generates a stable luminescent output correlated to firefly luciferase concentration. […]

Test [10] deals with T3, Recombinant VEGF165 (vascular endothelial growth factor) (UniProt P15692-4 27-191, biotinylated (bVEGF) in flow cytometry and BLI).
T3 construct: also called VEGF-A (165); bVEGF
Put plainly: biolayer interferometry, 25 nM bVEGF on streptavidin probes, soluble affibody 15.625-125 nM. Here is the method:
All samples were diluted in PBS solution containing 0.05% Tween-20® (PBST). […] Dissociation constants were obtained from a 1:1 global curve fitting of the data. n=4.
A general note: In BLI a coated tip is dipped into the sample, and binding shifts an interference pattern.

Read-outs that look alike come from different tables or passages of the source.

T2 sequence (P12643 283-396 limits assumed): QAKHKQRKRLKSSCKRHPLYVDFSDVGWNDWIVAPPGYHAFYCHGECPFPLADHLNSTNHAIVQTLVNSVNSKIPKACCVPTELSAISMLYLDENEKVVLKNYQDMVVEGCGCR
integrin α5β1, sequence (P08648 42-894 limits assumed): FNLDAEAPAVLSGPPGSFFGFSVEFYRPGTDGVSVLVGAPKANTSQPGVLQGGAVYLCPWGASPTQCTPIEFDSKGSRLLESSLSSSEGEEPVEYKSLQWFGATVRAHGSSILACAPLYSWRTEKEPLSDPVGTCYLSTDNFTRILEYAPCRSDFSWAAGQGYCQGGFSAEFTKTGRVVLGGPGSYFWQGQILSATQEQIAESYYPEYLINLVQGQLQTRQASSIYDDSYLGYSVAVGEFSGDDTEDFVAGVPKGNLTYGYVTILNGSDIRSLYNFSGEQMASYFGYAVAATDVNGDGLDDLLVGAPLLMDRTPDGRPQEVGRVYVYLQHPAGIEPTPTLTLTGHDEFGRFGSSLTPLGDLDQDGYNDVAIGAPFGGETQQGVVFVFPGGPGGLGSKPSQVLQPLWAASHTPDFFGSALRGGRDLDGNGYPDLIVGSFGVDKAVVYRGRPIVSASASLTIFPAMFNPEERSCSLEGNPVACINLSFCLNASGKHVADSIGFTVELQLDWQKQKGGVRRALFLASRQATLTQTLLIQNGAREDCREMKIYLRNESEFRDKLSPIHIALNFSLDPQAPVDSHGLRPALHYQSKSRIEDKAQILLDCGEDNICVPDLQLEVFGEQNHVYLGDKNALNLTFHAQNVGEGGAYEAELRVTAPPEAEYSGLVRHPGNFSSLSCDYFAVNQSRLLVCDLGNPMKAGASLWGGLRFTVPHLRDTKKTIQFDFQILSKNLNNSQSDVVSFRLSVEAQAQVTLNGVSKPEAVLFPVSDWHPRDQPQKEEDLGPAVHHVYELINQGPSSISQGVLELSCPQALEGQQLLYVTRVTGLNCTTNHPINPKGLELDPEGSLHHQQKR
integrin α5β1, sequence (P08648 895-1049 limits assumed): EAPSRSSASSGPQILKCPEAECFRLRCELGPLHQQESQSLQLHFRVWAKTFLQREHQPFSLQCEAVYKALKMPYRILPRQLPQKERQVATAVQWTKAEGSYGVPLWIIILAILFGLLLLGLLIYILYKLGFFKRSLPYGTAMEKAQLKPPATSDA
integrin α5β1, sequence (P05556 21-798): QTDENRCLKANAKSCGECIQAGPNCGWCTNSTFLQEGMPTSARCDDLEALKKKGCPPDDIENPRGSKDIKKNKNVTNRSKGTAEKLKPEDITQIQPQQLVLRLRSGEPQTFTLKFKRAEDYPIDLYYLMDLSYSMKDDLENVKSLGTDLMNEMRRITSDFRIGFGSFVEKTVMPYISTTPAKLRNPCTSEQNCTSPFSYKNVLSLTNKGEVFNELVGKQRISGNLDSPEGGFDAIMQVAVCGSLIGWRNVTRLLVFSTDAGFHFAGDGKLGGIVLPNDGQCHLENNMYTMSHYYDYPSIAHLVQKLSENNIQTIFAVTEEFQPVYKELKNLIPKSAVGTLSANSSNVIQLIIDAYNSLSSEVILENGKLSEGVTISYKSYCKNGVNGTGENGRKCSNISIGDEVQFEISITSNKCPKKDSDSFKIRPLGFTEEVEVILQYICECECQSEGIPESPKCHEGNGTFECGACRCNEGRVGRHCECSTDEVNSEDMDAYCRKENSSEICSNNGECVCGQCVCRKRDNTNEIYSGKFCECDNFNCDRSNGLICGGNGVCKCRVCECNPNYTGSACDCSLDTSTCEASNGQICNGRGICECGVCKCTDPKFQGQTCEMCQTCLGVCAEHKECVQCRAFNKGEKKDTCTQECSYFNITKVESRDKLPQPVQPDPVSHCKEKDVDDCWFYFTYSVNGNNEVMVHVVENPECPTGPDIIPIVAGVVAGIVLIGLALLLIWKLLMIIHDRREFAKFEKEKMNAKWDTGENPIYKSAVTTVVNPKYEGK

As for FGF-2: Recombinant FGF-2 (PeproTech), the “HUVEC network length and branching” value in test [1] (5, 10, or 50 ng/mL) is listed as “limited impact”.

For the molecule VEGF, the maximum response entry in [2] is on record as “approximately 36,000 relative luminescent units (RLUs)”. Further, the “HUVEC network length and branching” value in test [1] is “limited impact”.

Consider heparin, for which the Kd in test [3] was 165 nM; in test [4] it was 2040 nM; in test [5], 163 nM; in test [6] it was 461 nM.

B1: Moderate Affinity BMP-2 affibody A2-2 (SEQ ID NO: 2), yeast-displayed (designed binder)
chain: AEAKYAKEQFNAYVVIFYLPNLTASQKAAFVDALSNDPSQSSELLSEAKKLNDSQAPK
As for B1, the half-maximal effective concentration (EC50 (read off the curve)) in test [7] is approximately 20 nM.

B2: BMP-2 affibody A3-2 (SEQ ID NO: 9), yeast-displayed (designed binder)
chain: B1 chain
Take B2: the “EC50 (read off the curve)” value in [7] is approximately 10 nM.

B3: Recombinant human PDGF-BB (platelet-derived growth factor) (ligand, UniProt P01127 82-190, looked up)
chain: SLGSLTIAEPAMIAECKTRTEVFEISRRLIDRTNANFLVWPPCVEVQRCSGCCNNRNVQCRPTQVQLRPVQVRKIEIVRKKPIFKKATVTLEDHLACKCETVAAARPVT
modifications: biotinylated (bPDGF) in flow cytometry and off-target BLI; not biotinylated in the Ni-NTA BLI
For B3, the “50% effective dose (EC50), luminescence of NIH/3T3-Luc reporter cells” value in test [8] worked out at 2.94 ng/mL.

B4: PDGF: Recombinant PDGF-BB (PeproTech) (protein)
chain: B3 chain
Turning to B4, the maximal response in [9] is on record as 23,655 relative luminescent units (RLUs). Moreover, the “HUVEC network length and branching” value in [1] (5, 10, or 50 ng/mL) was “limited impact”.

B5: Moderate Affinity BMP-2 Affibody, soluble, with hexahistidine tag and C-terminal cysteine (SEQ ID NO: 72) (designed binder)
chain: AEAKYAKEQFNAYVVIFYLPNLTASQKAAFVDALSNDPSQSSELLSEAKKLNDSQAPKHHHHHHC
notes: E. coli-expressed; also called A2-2
As to B5, the binding result in [10] is recorded as “no binding (tested: 125 nM)”.
